Consider one compound from paper PMC3382171 (PLoS ONE, 2012).

Common to all, as to assay: biochemical
Holding throughout (parameters): Invitrogen SelectScreen kinase panel, percent inhibition at 1 uM, ATP at Km
What all share (conditions): read-out: Invitrogen KSS %Inh at 1 µM

Test [1] deals with HCK (Homo sapiens, UniProt P08631). In outline: (§1)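 Commercial kinase panel screens run with ATP at the Km for each kinase. Compounds tested at 1 µM final concentration; values are % inhibition of phosphorylation relative to control.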
Test [2] deals with BLK (Homo sapiens, UniProt P51451). Summed up: as §1
Test [3] has as its target PAK6 (Homo sapiens, UniProt Q9NQU5). Summed up: as §1
Test [4] deals with PRKG1 (Homo sapiens, UniProt Q13976). Summed up: as §1
Test [5] concerns the target AURKA (Aurora A) (Homo sapiens, UniProt O14965). In outline: as §1
Test [6] addresses FYN (Homo sapiens, UniProt P06241). Summed up:
as §1

Test [7] has as its target MAPK3 (ERK1) (Homo sapiens, UniProt P27361). In outline: as §1
The target of test [8] is NTRK2 (TRKB) (Homo sapiens, UniProt Q16620). Summed up:
as §1

Test [9] has as its target CDK2/CyclinA (Homo sapiens, UniProt P24941). In outline: as §1
For test [10], the target named is SYK (Homo sapiens, UniProt P43405). In outline: as §1
For test [11], the target named is CSNK1D (CK1 delta) (Homo sapiens, UniProt P48730). Summed up: as §1
Test [12] addresses CSNK2A1 (CK2 alpha 1) (Homo sapiens, UniProt P68400). In outline: as §1
Test [13] concerns the target PTK2B (FAK2) (Homo sapiens, UniProt Q14289). In outline:
as §1

In test [14] the target is MAPKAPK2 (Homo sapiens, UniProt P49137). Summed up: as §1
Test [15] has as its target PRKCQ (PKC theta) (Homo sapiens, UniProt Q04759). In outline: as §1
Test [16] concerns the target RAF1 (cRAF) Y340D Y341D (Homo sapiens, UniProt P04049, Y340D/Y341D). Summed up: as §1
Test [17] concerns the target PLK3 (Homo sapiens, UniProt Q9H4B4). In outline: as §1
The target in test [18] is PAK4 (Homo sapiens, UniProt O96013). Summed up:
as §1

For test [19], the target named is ZAP70 (Homo sapiens, UniProt P43403). Summed up:
as §1

In test [20] the target is IRAK4 (Homo sapiens, UniProt Q9NWZ3). Summed up: as §1
Test [21] addresses ITK (Homo sapiens, UniProt Q08881). In outline: as §1
In test [22] the target is INSR (Homo sapiens, UniProt P06213). In outline: as §1

IRAK4, sequence (Q9NWZ3 whole entry): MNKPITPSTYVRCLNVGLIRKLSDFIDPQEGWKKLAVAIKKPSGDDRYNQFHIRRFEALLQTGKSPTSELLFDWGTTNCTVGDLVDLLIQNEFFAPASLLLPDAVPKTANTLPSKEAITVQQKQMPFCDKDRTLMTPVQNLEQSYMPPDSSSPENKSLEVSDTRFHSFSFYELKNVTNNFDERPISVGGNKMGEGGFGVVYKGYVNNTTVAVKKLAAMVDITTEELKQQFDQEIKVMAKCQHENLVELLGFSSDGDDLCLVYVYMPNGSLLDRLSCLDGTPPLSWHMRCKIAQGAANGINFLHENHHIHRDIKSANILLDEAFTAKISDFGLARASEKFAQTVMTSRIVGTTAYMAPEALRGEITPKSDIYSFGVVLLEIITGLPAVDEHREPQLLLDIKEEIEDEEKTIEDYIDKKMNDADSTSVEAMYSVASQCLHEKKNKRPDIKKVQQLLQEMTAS
PLK3, sequence (Q9H4B4 whole entry): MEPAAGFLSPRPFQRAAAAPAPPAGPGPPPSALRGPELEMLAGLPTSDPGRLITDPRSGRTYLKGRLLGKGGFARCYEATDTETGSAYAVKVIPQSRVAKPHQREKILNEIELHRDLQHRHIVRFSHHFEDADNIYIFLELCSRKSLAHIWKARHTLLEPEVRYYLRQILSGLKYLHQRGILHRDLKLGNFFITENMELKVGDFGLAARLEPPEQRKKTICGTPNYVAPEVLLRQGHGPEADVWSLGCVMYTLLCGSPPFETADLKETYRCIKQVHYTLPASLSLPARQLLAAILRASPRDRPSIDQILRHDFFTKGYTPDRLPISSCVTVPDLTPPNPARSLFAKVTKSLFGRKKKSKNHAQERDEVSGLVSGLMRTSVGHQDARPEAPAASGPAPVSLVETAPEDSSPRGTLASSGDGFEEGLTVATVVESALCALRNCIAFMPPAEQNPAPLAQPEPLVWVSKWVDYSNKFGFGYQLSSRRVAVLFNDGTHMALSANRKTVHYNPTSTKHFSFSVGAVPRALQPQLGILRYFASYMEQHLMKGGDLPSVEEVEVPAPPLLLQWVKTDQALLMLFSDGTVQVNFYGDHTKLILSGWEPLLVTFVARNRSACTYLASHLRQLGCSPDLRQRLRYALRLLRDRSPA
PRKCQ (PKC theta), sequence (Q04759 whole entry): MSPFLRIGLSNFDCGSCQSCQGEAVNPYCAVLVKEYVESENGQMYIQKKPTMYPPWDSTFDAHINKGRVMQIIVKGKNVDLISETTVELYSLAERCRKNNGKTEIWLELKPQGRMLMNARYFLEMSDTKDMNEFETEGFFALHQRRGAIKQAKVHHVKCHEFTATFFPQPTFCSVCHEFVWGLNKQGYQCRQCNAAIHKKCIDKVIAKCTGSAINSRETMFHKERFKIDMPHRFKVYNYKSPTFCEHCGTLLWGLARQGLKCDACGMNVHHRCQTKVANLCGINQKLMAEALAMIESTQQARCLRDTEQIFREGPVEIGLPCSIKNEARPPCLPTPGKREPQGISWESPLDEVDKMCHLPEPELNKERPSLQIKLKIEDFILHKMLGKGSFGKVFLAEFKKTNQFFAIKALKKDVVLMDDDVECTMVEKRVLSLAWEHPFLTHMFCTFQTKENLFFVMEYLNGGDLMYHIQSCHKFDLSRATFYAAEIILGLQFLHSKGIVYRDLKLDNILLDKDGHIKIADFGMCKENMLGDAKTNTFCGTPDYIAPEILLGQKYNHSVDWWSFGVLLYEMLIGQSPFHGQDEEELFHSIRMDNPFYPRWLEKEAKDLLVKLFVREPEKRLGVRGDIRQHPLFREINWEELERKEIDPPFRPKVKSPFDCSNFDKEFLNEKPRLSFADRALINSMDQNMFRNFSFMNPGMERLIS
HCK, sequence (P08631 whole entry): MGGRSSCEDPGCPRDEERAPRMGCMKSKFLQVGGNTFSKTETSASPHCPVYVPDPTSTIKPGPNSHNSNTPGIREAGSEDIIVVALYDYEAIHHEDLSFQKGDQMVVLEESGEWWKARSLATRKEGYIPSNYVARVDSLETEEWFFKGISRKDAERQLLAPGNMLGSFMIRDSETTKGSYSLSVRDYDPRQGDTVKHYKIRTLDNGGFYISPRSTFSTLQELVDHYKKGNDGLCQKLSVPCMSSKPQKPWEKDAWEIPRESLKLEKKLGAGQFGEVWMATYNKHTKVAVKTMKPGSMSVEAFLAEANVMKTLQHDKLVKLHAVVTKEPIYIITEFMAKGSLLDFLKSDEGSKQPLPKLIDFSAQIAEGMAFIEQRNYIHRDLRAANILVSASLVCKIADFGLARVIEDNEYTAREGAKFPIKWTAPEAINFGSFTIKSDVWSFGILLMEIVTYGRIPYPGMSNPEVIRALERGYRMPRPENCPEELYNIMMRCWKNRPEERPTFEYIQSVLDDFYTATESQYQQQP
PAK6, sequence (Q9NQU5 whole entry): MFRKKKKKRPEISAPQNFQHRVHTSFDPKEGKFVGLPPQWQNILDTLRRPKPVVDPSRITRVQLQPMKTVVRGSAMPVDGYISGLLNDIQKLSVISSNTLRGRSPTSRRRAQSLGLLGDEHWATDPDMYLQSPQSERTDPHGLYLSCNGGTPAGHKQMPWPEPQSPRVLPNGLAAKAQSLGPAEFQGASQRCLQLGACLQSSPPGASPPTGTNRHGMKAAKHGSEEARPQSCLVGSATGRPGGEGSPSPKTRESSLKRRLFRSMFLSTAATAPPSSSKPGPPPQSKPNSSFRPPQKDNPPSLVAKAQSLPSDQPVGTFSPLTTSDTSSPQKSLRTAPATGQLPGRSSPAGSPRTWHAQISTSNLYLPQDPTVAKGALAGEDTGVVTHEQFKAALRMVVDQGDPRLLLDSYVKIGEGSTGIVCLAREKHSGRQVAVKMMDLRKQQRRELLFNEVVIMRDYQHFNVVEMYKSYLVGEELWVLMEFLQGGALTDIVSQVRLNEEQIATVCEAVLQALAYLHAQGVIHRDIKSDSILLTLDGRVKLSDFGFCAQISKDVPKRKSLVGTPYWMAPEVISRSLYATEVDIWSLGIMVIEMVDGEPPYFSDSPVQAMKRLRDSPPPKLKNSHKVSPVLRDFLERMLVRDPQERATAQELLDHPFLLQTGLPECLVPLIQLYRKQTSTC
FYN, sequence (P06241 whole entry): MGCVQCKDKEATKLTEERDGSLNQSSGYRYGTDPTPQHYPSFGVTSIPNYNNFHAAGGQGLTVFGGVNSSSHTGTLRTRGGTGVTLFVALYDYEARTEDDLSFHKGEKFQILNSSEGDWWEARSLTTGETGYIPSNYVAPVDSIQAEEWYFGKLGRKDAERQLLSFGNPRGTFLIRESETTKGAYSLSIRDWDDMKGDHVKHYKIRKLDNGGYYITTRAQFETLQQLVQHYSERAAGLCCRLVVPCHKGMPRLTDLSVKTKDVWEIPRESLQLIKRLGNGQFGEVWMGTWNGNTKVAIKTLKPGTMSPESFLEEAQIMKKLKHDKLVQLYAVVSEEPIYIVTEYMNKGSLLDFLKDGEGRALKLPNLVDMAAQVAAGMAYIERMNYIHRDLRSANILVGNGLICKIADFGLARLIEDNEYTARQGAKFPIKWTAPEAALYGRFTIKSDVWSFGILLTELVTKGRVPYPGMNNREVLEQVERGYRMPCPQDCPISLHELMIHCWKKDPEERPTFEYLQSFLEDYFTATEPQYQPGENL
AURKA (Aurora A), sequence (O14965 whole entry): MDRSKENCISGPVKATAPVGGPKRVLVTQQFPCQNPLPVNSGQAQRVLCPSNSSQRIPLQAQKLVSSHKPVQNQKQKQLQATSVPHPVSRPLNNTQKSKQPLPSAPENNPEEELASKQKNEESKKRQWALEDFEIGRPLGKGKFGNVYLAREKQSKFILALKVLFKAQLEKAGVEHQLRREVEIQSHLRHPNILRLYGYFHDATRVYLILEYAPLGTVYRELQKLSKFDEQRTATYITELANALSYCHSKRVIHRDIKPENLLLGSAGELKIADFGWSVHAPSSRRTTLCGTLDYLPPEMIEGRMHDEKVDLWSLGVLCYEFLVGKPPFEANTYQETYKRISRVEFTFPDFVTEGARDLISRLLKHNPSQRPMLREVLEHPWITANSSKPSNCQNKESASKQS
CSNK2A1 (CK2 alpha 1), sequence (P68400 whole entry): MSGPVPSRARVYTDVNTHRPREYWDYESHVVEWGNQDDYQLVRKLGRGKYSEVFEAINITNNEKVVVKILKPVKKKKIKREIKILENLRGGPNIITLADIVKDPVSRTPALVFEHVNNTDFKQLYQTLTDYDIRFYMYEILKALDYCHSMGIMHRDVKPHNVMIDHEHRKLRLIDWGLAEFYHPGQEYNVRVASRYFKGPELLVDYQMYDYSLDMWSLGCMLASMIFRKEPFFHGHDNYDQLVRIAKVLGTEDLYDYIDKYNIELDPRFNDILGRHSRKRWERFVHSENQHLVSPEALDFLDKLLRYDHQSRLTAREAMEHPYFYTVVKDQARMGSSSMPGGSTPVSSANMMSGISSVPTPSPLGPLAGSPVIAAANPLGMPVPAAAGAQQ
MAPKAPK2, sequence (P49137 whole entry): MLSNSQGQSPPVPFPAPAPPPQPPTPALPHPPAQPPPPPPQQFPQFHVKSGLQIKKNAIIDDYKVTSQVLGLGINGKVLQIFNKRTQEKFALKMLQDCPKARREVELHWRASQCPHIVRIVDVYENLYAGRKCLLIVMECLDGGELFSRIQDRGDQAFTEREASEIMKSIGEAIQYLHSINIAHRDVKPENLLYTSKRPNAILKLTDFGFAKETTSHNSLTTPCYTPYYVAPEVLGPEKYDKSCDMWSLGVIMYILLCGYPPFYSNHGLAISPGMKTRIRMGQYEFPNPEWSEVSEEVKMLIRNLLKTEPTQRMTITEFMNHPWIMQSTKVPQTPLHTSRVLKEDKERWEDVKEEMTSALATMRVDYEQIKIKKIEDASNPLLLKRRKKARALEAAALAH

With `N#CCCNc1nccc(-c2cn(CC(F)F)nc2-c2cnc3[nH]ccc3c2)n1` [RAFi, PF-04880594], the inhibition at 1 µM is 5% in [1]; 7% in [2]; 10% in test [3]; -3% in test [4]; 15% in test [5]; -4% in [6]. Moreover, the inhibition at 1 µM in test [7] was 28%; in test [8] it was 23%; in test [9] it was 18%; in test [10], -35%; in test [11], 95%; in test [12] it was -1%. For the same compound, the inhibition at 1 µM in test [13] is 6%; in test [14], 3%; in [15], -2%; in test [16], 95%; in [17], 4%; in test [18] it was 1%. Besides, the inhibition at 1 µM in test [19] is 3%; in test [20], -16%; in [21], 0%; in test [22], -4%.
